According to patent publication US20240065270A1 (priority 2018, published 2024):
Entries after “also recorded” stand apart in the source; their conditions may differ.

Legend:
[1] = tested on: Cellulosin resistant mutants (cesa6); assay: Growth (root length) of Cellulosin resistant cesa6 mutants on supplemented media; format: in vivo, Arabidopsis; conditions: media supplemented with the compound, compared with DMSO control
Excerpt: (§1) Recently, we discovered a new cellulose synthase inhibitor Cellulosin and a group of cesa6 mutants that carry mis-sense mutations at the central cytoplasmic region that contains the catalytic motif and are resistant to Cellulosin. In order to test whether Cellulosin has the same mode of action as isoxaben, indaziflam and C17, we first tested the growth of isoxaben resistant mutants on media supplemented with Cellulosin. […] We next tested the growth of our Cellulosin resistant mutants on isoxaben, indaziflam and C17.
FIGS. 2E-2G depict quantifications of root length of Cellulosin resistant mutants on media supplemented with isoxaben (FIG. 2E), indaziflam (FIG. 2F), and C17 (FIG. 2G) in comparison with DMSO control, Statistically significant differences in right panels were determined by one-way ANOVA test followed by Tukey's multiple comparisons test. Different letters of root length of seedlings indicate significant difference between groups (p<0.05). Bars: 1 cm.

[2] = tested on: plants expressing CesA6 carrying mis-sense mutations at the catalytic site; assay: Growth of transgenic plants expressing CesA6 with mis-sense mutations at the hypothesized Cellulosin binding sites; format: in vivo, Arabidopsis; conditions: cesa6 loss-of-function mutant background; compared with DMSO control
Excerpt: as §1

[3] = tested on: Arabidopsis wildtype plants; assay: Growth (root length) of Arabidopsis wildtype plants on media with low-dose herbicides, alone and combined; format: in vivo
Experimental: Because Cellulosin has different target as isoxaben, indaziflam and C17. Since the need to avoid the development of herbicide-resistant weeds that is caused by repetitive application of the same herbicide is utmost, we decided to test whether application of Cellulosin together with isoxaben, indaziflam and C17 would make it possible to control the weeds more efficiently with reduced dosage of two herbicides.
Statistically significant differences in right panels were determined by one-way ANOVA test followed by Tukey's multiple comparisons test. Different letters of root length of seedlings indicate significant difference between groups (p<0.05). N=12.
[…] Bar, 1 cm.
Because Cellulosin and isoxaben target CesA at different sites, it allowed us to hypothesize that application of both herbicides at the same time will make it possible to control the weeds with reduced dosage of both herbicides. This should also avoid the development of herbicide-resistant weeds that is caused by repetitive application of the same herbicide. We tested the growth of Arabidopsis at lower dosage of both Cellulosin and isoxaben.

[4] = tested on: Arabidopsis mutants ixr1-1, ixr1-2 and ixr2-1; assay: Growth (root length) of isoxaben resistant mutants ixr1-1, ixr1-2, ixr2-1 on supplemented media; format: in vivo; conditions: media supplemented with the compound
Excerpt: as §1
Wildtype (WT) Arabidopsis and its mutants ixr1-1, ixr1-2, and ixr2-1 are grown on media supplemented with DMSO (FIGS. 1A-1B), isoxaben (FIGS. 1C-1D) or Cellulosin (FIGS. 1E-1F) and their quantifications on their root length. Arabidopsis mutants ixr1-1, ixr1-2 and ixr2-1 have longer roots in compare with wildtype (Col) on media supplemented with isoxaben. […] Bars: 1 cm

Row | Compound | sensitivity of Cellulosin resistant mutants in growth (root length) [1] | resistance / sensitivity in growth of plants expressing mutated CesA6 [2] | plant growth inhibition ([3]; 0.06 nM indaziflam alone in growth media) | plant growth inhibition ([3]; 0.25 nM indaziflam alone in growth media) | growth / root length of isoxaben resistant mutants compared with wildtype (Col) [4] | plant growth inhibition ([3]; 3.5 nM isoxaben alone, nine days old plants) | plant growth inhibition ([3]; 4 nM isoxaben alone in growth media)
1 | Cc1ccc2c(c1)[C@H](Nc1nc(N)nc(C(C)F)n1)[C@@H](C)C2 (stereo partly drawn) [indaziflam] | Most of our mutants that are resistant to Cellulosin are sensitive; also recorded: only a few of our mutants show reduced sensitivity | do not show resistance; also recorded: they have the same sensitivity | did not inhibit plant growth; also recorded: does not significantly inhibit plant growth | not inhibited |  |  | 
2 | CCC(C)(CC)c1cc(NC(=O)c2c(OC)cccc2OC)on1 [isoxaben, N-3[1-ethyl-1-methylpropyl]-5-isoxazolyl-2,6, or dimethoxybenzamide] | Most of our mutants that are resistant to Cellulosin are sensitive; also recorded: only a few of our mutants show reduced sensitivity | do not show resistance; also recorded: they have the same sensitivity |  |  | longer roots | Neither 300 nM Cellulosin nor 3.5 nM isoxaben significantly inhibits plant growth; also recorded: does not significantly inhibit plant growth | not inhibited; also recorded: did not inhibit plant growth; also recorded: does not significantly inhibit plant growth
